Experiments:
[1] = biological target: Cyclin-dependent kinase 1 (Saccharomyces cerevisiae S288c, UniProt P00546); assay: Inhibition of cyclin-dependent kinase activity of Cdc28p/CDK2p in Saccharomyces cerevisiae
[2] = test system: Saccharomyces cerevisiae; assay: Ability to inhibit cell proliferation of Saccharomyces cerevisiae strain BY4741; format: functional, organism-based
[3] = test system: Saccharomyces cerevisiae; assay: Global transcription profiling experiment to examine the changes in the mRNA levels in the wt laboratory strain treated with the concentration of borrelidin ([…]) that inhibitedcontinued growth of wt yeast; format: functional

Sequence of Cyclin-dependent kinase 1 (P00546 whole entry): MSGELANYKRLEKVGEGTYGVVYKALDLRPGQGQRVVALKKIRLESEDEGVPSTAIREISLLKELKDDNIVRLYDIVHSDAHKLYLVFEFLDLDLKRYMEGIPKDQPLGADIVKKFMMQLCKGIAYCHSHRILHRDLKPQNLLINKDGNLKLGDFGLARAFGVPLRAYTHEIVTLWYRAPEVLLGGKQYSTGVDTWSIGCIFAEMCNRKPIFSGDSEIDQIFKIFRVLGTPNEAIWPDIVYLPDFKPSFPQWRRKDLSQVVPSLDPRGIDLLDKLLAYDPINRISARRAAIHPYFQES

SMILES: C[C@@H]1C[C@H](C)C[C@H](C)[C@@H](O)CC(=O)O[C@H]([C@@H]2CCC[C@H]2C(=O)O)C/C=C/C=C(/C#N)[C@H](O)[C@@H](C)C1 [BORRELIDIN]
- IC50 [1]: 24 µM
- IC50 [2]: 23 µM
- Inhibition [3]: 75%
